The record followed here is paper PMC7093416, “Selective USP7 inhibition elicits cancer cell killing through a p53-dependent mechanism” (Scientific Reports, 2020).

Molecules are shown by their SMILES. Like-named read-outs stand apart in the source and are kept apart here. Bounds are passed on as bounds.

One assay addresses T1, full-length USP7 (Homo sapiens, UniProt Q93009).
T1 construct: The constructs encoding USP7 full length (amino acids 1–1102) and catalytic domain (208–560); inferred from Ni-NTA purification; made in house; host or cells: E. coli BL21 (DE3)
Nature of the assay: Ub-AMC enzymatic assay, full-length USP7, 6 h pre-incubation. It counts as biochemical. The method, then:
Full length USP7 was tested for its activity in Ubiquitin-AMC assay in presence or absence of inhibitors. USP7 (5 nM) was pre-incubated for 6 hours at room temperature with different concentrations of inhibitors or DMSO as a control in 50 mM HEPES pH 7.5, 0.5 mM EDTA, 11 uM ovalbumin, and 5 mM DTT. Ubiquitin-AMC (Boston Biochem) was then added to a final concentration of 500 nM. The initial rate of the reaction was measured by collecting fluorescence data at one minute intervals over 30-minute period using a Clariostar fluorescence plate reader at excitation and emission wavelength of 345 and 445 nm respectively. The calculated initial rate values were plotted against inhibitor concentrations to determine IC50s. All the experimental data were plotted using Prism GraphPad. All assays for each compound were performed at least twice for each compound.

The next assay concerns the target T2, USP7-F291N (Homo sapiens, UniProt Q93009, F291N).
T2 construct: made in house
Nature of the assay: Ub-AMC enzymatic assay, USP7-F291N mutant. In kind it is biochemical. The following applies: 6-hr pre-incubation.

The test system of the next assay is HDM2-p53 signaling axis. Put plainly: Whole cell lysate Western blots of MCF7 cells (HDM2, p53, p21). It counts as cell-based.
The next assay relates to MCF7 cells. Put plainly: 3' DGE RNA-seq transcriptional profiling. In kind it is cell-based. More on the design: log2FoldChange: concentration or dose not given beside the values. The following applies: for log2FoldChange: gene ABCA12. The method, then:
The DGE RNA sequencing was performed following the published method[39],[40] with modifications as described below. MCF7 cells were seeded in a 384 well plate at 2500 cells per well, allowed to adhere for 24 hours, then treated with two doses in triplicate of XL177A, XL177B, Nutlin-3, or DMSO. After 24 hours of treatment, an EL405x plate washer (BioTek) was used to aspirate the media and wash once with PBS. Cells were lysed in the plate with 10 µl of lysis buffer (1x Qiagen TCL, 1% BME) for 5 minutes at room temperature, then stored at −80 °C. Automated liquid handling was performed with assistance from ICCB-Longwood Screening Facility. A BRAVO Automated Liquid Handling Platform (Agilent) was used for RNA extraction as follows. The lysate was mixed and 10 µl was transferred to a 384 well PCR plate. 28 µl of homemade SPRI[66] (solid-phase reversible immobilization) beads were added to the lysate and mixed. After 5 minutes, the beads were pulled down by placing the plate on a magnet, then the beads were washed twice with 80% ethanol. Beads were air dried for 1 minute, then 20 µl of nuclease free water was added, the plate was removed from the magnet, and the beads were resuspended. After 5 minutes, the plate was placed back on the magnet to pull down the beads. The supernatant was transferred to a fresh 384 well plate. RNA quantity was checked with the Qubit Fluorometer and RNA quality was assessed using the Agilent BioAnalyzer RNA 6000 Pico Kit. The BRAVO platform was again used to transfer 5 µl of supernatant was transferred to a fresh 384 well plate with RT master mix and 1 µl of barcoded E3V6NEXT adapters for reverse transcription and template switching. The plate was incubated for 90 minutes at 42 °C, then cDNA was pooled, purified with the QIAquick PCR purification kit. The full-length cDNA was treated with Exonuclease I to remove excess primers for 30 minutes at 37 °C then amplified x5 cycles with Advantage 2 PCR Enzyme System using the SINGV6 primer. The amplified full-length cDNA was purified with Agencourt AMPure XP magnetic beads and quantitated by Qubit Fluorometer. The sequencing library was prepared using the Nextera DNA kit following the manufacturer’s instructions. Briefly, 55 ng of cDNA was tagmented for 5 minutes at 55 °C then purified using Zymo DNA Clean & Concetrator-5 column, then amplified x7 cycles and purified using a 0.9x ratio of AMPure XP magnetic beads. The library size distribution was assessed by Agilent BioAnalyzer HS DNA Kit before it was quantified by qPCR and sequenced on an Illumina NextSeq at the Biopolymers Facility at Harvard Medical School.
The bcbio-nextgen single cell RNA-seq analysis pipeline (https://bcbio-nextgen.readthedocs.io/en/latest/) was used to deconvolve the well barcodes and convert reads to counts. Any detected barcode that differed by more than one base from an expected barcode was removed. Unique reads were identified using unique molecular identifiers (UMIs) in order to remove PCR duplicates. The reads remaining after these filters were aligned to the transcriptome (GRCh38) using RapMap[67]. The R package DESeq. 2 version 1.20.0 (R version 3.5.1) was used for differential expression analysis.

Assay [1] concerns Ewing Sarcoma, AML, multiple myeloma and rhabdoid cell lines. Nature of the assay: Cell viability (CellTiter-Glo) in individual cell line panels. It counts as cell-based. The protocol: Cells were plated in 384-well culture-treated plates and allowed to settle overnight. After drug treament and appropriate incubation time, cell viability was assessed using the CellTiter-Glo Luminescent Cell Viability Assay (Promega). Luminescence was read on a Fluostar Omega Reader (BMG Labtech).

T1 sequence (Q93009 whole entry, the tested form may be a part): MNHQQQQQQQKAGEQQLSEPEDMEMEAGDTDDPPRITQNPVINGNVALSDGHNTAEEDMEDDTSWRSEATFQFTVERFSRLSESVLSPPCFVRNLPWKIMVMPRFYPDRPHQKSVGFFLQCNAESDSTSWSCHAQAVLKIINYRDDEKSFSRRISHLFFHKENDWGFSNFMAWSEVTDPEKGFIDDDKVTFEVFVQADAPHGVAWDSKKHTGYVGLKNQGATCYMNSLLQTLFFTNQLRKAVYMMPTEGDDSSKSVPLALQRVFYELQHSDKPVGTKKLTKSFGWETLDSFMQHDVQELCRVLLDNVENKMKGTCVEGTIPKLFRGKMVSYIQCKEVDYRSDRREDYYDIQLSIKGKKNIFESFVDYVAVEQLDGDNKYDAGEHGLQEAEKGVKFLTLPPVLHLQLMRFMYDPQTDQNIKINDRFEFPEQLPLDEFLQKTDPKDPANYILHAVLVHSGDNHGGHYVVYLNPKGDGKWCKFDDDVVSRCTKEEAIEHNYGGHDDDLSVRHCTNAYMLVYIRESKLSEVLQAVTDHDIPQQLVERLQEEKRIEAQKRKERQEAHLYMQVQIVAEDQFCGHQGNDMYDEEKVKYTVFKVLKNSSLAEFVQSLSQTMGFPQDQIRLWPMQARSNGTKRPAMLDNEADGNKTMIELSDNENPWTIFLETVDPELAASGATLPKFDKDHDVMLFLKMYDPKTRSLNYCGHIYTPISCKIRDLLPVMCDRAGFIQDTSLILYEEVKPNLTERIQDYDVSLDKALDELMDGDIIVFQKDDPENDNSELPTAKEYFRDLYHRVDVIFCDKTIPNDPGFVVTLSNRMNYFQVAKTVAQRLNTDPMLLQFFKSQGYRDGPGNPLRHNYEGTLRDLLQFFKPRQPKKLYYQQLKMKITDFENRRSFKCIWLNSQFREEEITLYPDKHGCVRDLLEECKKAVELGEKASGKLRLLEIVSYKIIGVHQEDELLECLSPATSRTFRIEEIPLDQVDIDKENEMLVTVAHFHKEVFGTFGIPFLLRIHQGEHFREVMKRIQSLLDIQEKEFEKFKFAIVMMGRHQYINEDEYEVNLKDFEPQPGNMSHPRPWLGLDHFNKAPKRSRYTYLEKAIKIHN
T2 sequence (Q93009 whole entry F291N): as the sequence (Q93009 whole entry, the tested form may be a part) above, with F291N counted along it

As to `CN1CCN(CCC(=O)Nc2ccc3c(=O)n(CC4(O)CCN(C(=O)[C@@H](CCCNC(=O)c5ccc6c(Cl)c7c(nc6c5)CCCC7)Cc5ccccc5)CC4)cnc3c2)CC1` [XL177A], the IC50 at full-length USP7 (read-out: potency as irreversible inhibitor of USP7) worked out at 0.00034 µM. At USP7-F291N, the IC50 stood at 0.629 µM. Also, in the assay on HDM2-p53 signaling axis, the “p53 and p21 protein levels” value was “increases in p53 and downstream p21 protein levels”; the “time to degradation of HDM2” value is at most 2 h. In the assay on MCF7 cells (24 hours, low and high dose), the “DREAM complex target genes” value is listed as “strongly downregulated the DREAM complex targets” and the “direct p53 target genes” value is “strongly upregulated the p53 targets”. For the same compound, the log2FoldChange in the assay with MCF7 cells (concentration 0.1) was determined as 0.471. Besides, in the assay on MCF7 cells (concentration 1), the log2FoldChange amounted to 0.4983. In assay [1], the “TP53-WT cell lines sensitive” value was 9 out of 10 and the “TP53-mutant cell lines sensitive” value is 1 out of 17.

In the case of `COc1ccc(C2=N[C@@H](c3ccc(Cl)cc3)[C@@H](c3ccc(Cl)cc3)N2C(=O)N2CCNC(=O)C2)c(OC(C)C)c1` [Nutlin-3A], the “direct p53 target genes” value in the assay with MCF7 cells (24 hours, low and high dose) was “enriched for the direct p53 target genes”.

As to `CN1CCN(CCC(=O)Nc2ccc3c(=O)n(CC4(O)CCN(C(=O)[C@H](CCCNC(=O)c5ccc6c(Cl)c7c(nc6c5)CCCC7)Cc5ccccc5)CC4)cnc3c2)CC1` [XL177B], on full-length USP7 (Ub-AMC, 6-hour pre-treatment, read-out: IC50), the IC50 was determined as 0.34 µM. Also, the “effects on HDM2-p53 signaling and cell cycle” value in the assay with HDM2-p53 signaling axis (negative control) is reported as “did not exert any of the same effects except at 10 μM”. The “hierarchical clustering of transcriptional profile” value in the assay with MCF7 cells (24 hours, 0.1 or 1 μM) was “clustered with the vehicle (DMSO)-treated control cells”. Besides, the log2FoldChange in the assay on MCF7 cells (concentration 0.1) was found to be 0.1473; in the assay on MCF7 cells (concentration 1), 0.2612. Moreover, the “less potent than XL177A in the cell lines tested” value in assay [1] is listed as ~ 100 fold.
